Patent US5556858A, “Cis-2-[(4-heteroaryl-1-piperazinyl)alkyl] hexahydro-1H-isoindole-1,3 (2H)-diones and related compounds and their therapeutic utility” (Hoechst-Roussel Pharmaceuticals, Inc., priority 1995, dated 1996)
Read-outs that look alike come from different tables or passages of the source.

What was measured:
[1] = test system: phenylquinone induced writhing; assay: phenyl p-quinone writhing assay (analgesia); assay type: in vivo, mice; conditions: Mus musculus, sc, dose effecting approximately 50% inhibition of writhing
Excerpt: Some of the compounds of the present invention are also useful as analgetics due to their ability to alleviate pain in mammals. […] Exptl. Biol. Med., 95:729 (1957). Thus, for instance, the subcutaneous dose effecting an approximately 50% inhibition of writhing (ED50) in mice produced in this assay is as shown in Table 2.

[2] = test system: apomorphine climbing; assay: climbing mice assay (antipsychotic activity); assay type: in vivo, mice (CK-1 male); conditions: Mus musculus; ip; apomorphine 1.5 mg/kg subcutaneously; climbing score vs control
Description: Subject […] male mice (23-27 grams) are group-housed under standard laboratory conditions. The mice are individually placed in wire mesh stick cages (4"×10") and are allowed one hour for adaption and exploration of the new environment.
For evaluation of climbing, 3 readings are taken at 10, 20, and 30 minutes-after apomorphine administration according to the following scale: […]
Mice consistently climbing before the injection of apomorphine are discarded.
With full-developed apomorphine climbing, the animals are hanging on to the cage walls, rather motionless, over long periods of time. By contrast, climbs due to mere motor stimulation usually only last a few seconds.
The climbing scores are individually totaled (maximal score: 6 per mouse over 3 readings) and the total score of the control group (vehicle intraperitoneally-apomorphine subcutaneously) is set to 100%.

[3] = read-out: INHIBITION OF PHE[…] WRITHING ED50

SMILES | ED50 [1] | ED50 [2] | ED50 [1, 3]
COc1cc(C(C)=O)ccc1OCCCN1CCC(c2noc3ccccc23)CC1 [1-[4-[3-[4-(1,2-benzisoxazol-3-yl)-1-piperidinyl]propoxy]-3-methoxyphenyl]ethanone] | 0.17 mg/kg | 0.67 mg/kg | 
COc1cc(C(C)=O)ccc1OCCCN1CCN(c2n[nH]c3ccccc23)CC1 [1-[4-[3-[4-(1H-indazol-3-yl)-1-piperazinyl]propoxy]-3-methoxyphenyl]ethanone] | 0.06 mg/kg | 0.98 mg/kg | 
COc1cc(C(C)=O)ccc1OCCCN1CCC(c2noc3cc(F)ccc23)CC1 [1-[4-[3-[4-(6-fluoro-1,2-benzisoxazol-3-yl)-1-piperidinyl]propoxy]-3-methoxyphenyl]ethanone] | 0.03 mg/kg | 0.095 mg/kg | 
CC(C)=CCN1CCC2(C)c3cc(O)ccc3CC1C2C (centres unmarked) [Pentazocine, reference compound] |  |  | 1.3 mg/kg
CCC(=O)O[C@](Cc1ccccc1)(c1ccccc1)[C@H](C)CN(C)C [Propoxyphene, reference compound] |  |  | 3.9 mg/kg
